Marks after values point to notes of the source that are not given here.

As a reminder, the Kd is the constant that tells how readily two partners part at equilibrium. By IC50 is commonly meant the concentration needed to halve the response being measured.

In data set [1] the target is FGF-1 (Homo sapiens, UniProt P05230). Description: SPR based solution affinity assay, growth factor binding (FGF-1). The following applies: heparin-coated sensorchip, HBS-EP buffer, 25° C.; read-out: Kd aFGF. The method, then:
(§1) Binding affinities of ligands for the growth factors FGF-1, FGF-2 and VEGF were measured using a surface plasmon resonance (SPR) based solution affinity assay. The principle of the assay is that heparin immobilised on a sensorchip surface distinguishes between free and bound growth factor in an equilibrated solution of the growth factor and a ligand. Upon injection of the solution, the free growth factor binds to the immobilised heparin, is detected as an increase in the SPR response and its concentration thus determined. A decrease in the free growth factor concentration as a function of the ligand concentration allows for the calculation of the dissociation constant, Kd. It is important to note that ligand binding to the growth factors can only be detected when the interaction involves the HS binding site, thus eliminating the chance of evaluating non-specific binding to other sites on the protein. A 1:1 stoichiometry has been assumed for all protein:ligand interactions.
(§2) For the testing of growth factor binding activity, heparin-coated sensorchips were used. Their preparation, via immobilisation of biotinylated BSA-heparin on a streptavidin-coated sensorchip, has been described.[5] Heparin has also been immobilised via aldehyde coupling using either adipic acid dihydrazide or 1,4-diaminobutane. […] Ligands binding to FGF-1 and VEGF were measured in HBS-EP buffer (10 mM HEPES, pH 7.4, 150 mM NaCl, 3.0 mM EDTA and 0.005% (v/v) polysorbate 20), while binding to FGF-2 was measured in HBS-EP buffer containing 0.3 M NaCl.[5] […] For each assay mixture, 50-200 μL of solution was injected at 5-40 μL/min and the relative binding response measured. […]
(§3) Sensorgram data were analysed using the BIAevaluation software (BIAcore). […]
(§4) [formula] and the binding equation[5] can be expressed as
(§5) The Kd values given are the values fit, using the binding equation, to a plot of [P] versus [L]total. Where Kd values were measured in duplicate, the values represent the average of the duplicate measurements. […]

Data set [2] has as its target FGF-2 (Homo sapiens, UniProt P09038). Description: SPR based solution affinity assay, growth factor binding (FGF-2). The following applies: heparin-coated sensorchip, HBS-EP buffer containing 0.3 M NaCl, 25° C.; read-out: Kd bFGF. The procedure:
as §1, §2, §3, §4, §5

The target of data set [3] is T1, VEGF (Homo sapiens, UniProt P15692).
T1 sequence (P15692 27-191 isoform P15692-4): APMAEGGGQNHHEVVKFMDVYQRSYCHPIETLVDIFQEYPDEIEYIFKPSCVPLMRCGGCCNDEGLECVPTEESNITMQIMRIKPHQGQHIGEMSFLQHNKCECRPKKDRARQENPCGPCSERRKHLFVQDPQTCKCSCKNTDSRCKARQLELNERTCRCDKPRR
Description: SPR based solution affinity assay, growth factor binding (VEGF). The settings on record: heparin-coated sensorchip, HBS-EP buffer, 25° C. The procedure:
as §1, §2, §3, §4, §5

Data set [4] deals with T2, heparanase (Homo sapiens, UniProt Q9Y251).
T2 sequence (Q9Y251 158-543 limits assumed): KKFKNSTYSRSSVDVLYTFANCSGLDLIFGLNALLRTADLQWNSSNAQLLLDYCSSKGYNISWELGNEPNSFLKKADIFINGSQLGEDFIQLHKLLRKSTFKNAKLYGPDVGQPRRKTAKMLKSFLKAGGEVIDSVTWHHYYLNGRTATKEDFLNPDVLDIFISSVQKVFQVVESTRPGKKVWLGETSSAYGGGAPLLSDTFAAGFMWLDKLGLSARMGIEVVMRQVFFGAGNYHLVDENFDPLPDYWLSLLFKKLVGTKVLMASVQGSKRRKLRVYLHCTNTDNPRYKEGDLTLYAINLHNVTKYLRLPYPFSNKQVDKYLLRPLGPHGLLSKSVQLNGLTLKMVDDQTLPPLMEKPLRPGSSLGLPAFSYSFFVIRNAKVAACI
T2 sequence (Q9Y251 36-109 limits assumed): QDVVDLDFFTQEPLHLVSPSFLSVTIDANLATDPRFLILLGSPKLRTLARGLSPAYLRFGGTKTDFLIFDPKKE
Description: Heparanase inhibition, Microcon ultrafiltration assay. The following applies: 3H labelled HS, pH 5.0, 22° C., 2.5 h. Format: biochemical. The procedure:
The heparanase assays were performed using a Microcon ultrafiltration assay. The assays rely on the principle of physically separating heparan sulfate (HS) that has been digested by heparanase from native HS to determine heparanase activity. The assay uses ultrafiltration devices (Microcon YM-10) to separate the smaller heparanase-cleaved HS fragments from native HS.
A reaction was set up with a volume of 90 μL, • 40 mM acetate buffer (pH 5.0) • 0.1 mg/mL BSA • 90 ng heparanase • 2.5 μM ^3H labelled HS • various concentrations of inhibitors.
The reactions were set up with all components except the ^3H labelled HS and allowed to equilibrate for 10 min at 22° C. The assays were then initiated by adding the HS and immediately 20 μL was taken, mixed with 80 μL of 10 mM phosphate (pH 7.0) and the 100 μL transferred to a Microcon YM-10 concentrator which was then centrifuged at approximately 14000 g for 5 min. The solution that passed through the membrane (filtrate) was retained. This sample was considered the time=0 sample. The assays (now 70 μL in volume) were allowed to react at 22° C. for 2.5 h and then the filtration step was repeated for three aliquots of 20 μL from each assay.
The time=0 filtrate and the three 2.5 h filtrate samples were counted for ^3H. The difference between the time=0 and the averaged 2.5 h samples gave the amount of heparanase activity. All inhibition assays were run with a heparanase standard assay which was identical to the assay composition above except no inhibitor was present and the amount of heparanase inhibition in the other assays determined by comparison with this standard.

In data set [5] the test system is herpes simplex virus (HSV-1) KOS321 strain. Description: Antiviral assay, HSV-1 infectivity (plaque forming units). Format: cell-based. The following applies: African green monkey kidney cells; virus pre-incubated with compound 10 min. The source says: (§6) In panel A, the results are expressed as a percentage of the number of viral plaque forming units (PFU) formed in cells infected with the compound-treated virions relative to mock-treated controls. In panel B, the results are expressed as a percentage of the average area of 20 viral plaques formed in the continuous presence of compound relative to mock-treated control cells. Monolayer cultures of African green monkey kidney cells[35] and herpes simplex virus (HSV-1) KOS321 strain[36] were used throughout. The antiviral assays on the compounds were performed as described by Nyberg et al.[13] Briefly, the effects of the compounds on the infection of cells by exogenously added virus were tested by mixing serial fivefold dilutions of compound (at 0.032-20 μM) with approximately 200 plaque forming units of the virus. Following incubation of the virus and compound for 10 min at room temperature, the mixture was added to the cells and left on the cell monolayer for 2 h at 37° C. Subsequently, the inoculum was aspirated and replaced with an overlay medium of 1% methylcellulose solution in Eagle's minimum essential medium (EMEM). The viral plaques that developed after incubation of cells for 3 days at 37° C. were stained with 1% crystal violet solution and counted. The effects of the compounds on cell-to-cell spread of HSV-1 were tested by adding serial fivefold dilutions of compound (at 0.032-20 μM) in the serum-free overlay medium to cells after their infection with HSV-1. After incubation of the compound with the cells for 3 days at 37° C., the images of 20 plaques were captured and subjected to area determination using IM500 software (Leica).

The test system is the same in data set [6]. Description: Antiviral assay, HSV-1 cell-to-cell spread (plaque area). Format: cell-based. The settings on record: African green monkey kidney cells; compound in overlay medium after infection, 3 days.
Description: as §6

Data set [7] in a line: Pharmacokinetic studies of 35S-labelled compounds after iv administration. The following applies: rat; for Urinary Recovery: urine collected 0-48 h. The method, then:
The polyol precursors for PG500, 501, 503, 504, 506 and PI-88 (2 mg of each) were desiccated under vacuum over P2O5 for 3 days. Into each vial was syringed 50 μL of a stock solution of 1.77 mg (2.0 mCi) of ^35SO3.pyridine complex and 2 mg SO3.Me3N in 300 μL of anhydrous DMF (Aldrich, redried over freshly ignited 3 A molecular sieves). A further 600 μL of anhydrous DMF was added to the SO3 vial and was distributed to each sample vial. The samples were heated to 60° for 66 hr. SO3.Me3N (14 mg in 300 μL anhydrous DMF) was added to each vessel and the resulting solutions were heated to 60° overnight. The vials were cooled to room temperature and stored at −80° C. awaiting purification.
Each sample was quenched by addition of Na2CO3 (sat. aqu. adjusted to pH 8-9), evaporated to dryness and subjected to SEC (Biogel P2, 2.6×90 cm, flow rate 30 mL/hr, 5 min/fraction). Fractions containing desired material were detected using a G-M counter and DMB test followed by CE.
Male Sprague Dawley rats (250-350 g) were used. The animals were allowed free access to food and water before and during the experiments, during which they were maintained unrestrained in metabolism cages. Rats were anaesthetized with isoflurane (Forthane®). A catheter was inserted in the external jugular vein via an incision in the neck, and was passed under the skin to a second incision in the skin of the back (midline vicinity of the scapulae). This was then exteriorized with the protection of a light metal spring. The incision was closed and the spring fixed to the skin with Michel sutures so that the rats had full range of movement. The animals were carefully monitored during recovery (1-4 h).
All doses were administered as a bolus intravenous injection of 2.5 mg/kg in a dose volume of 2 mL/kg. The total amount of radioactivity administered to each rat was 0.5-10 μCi. The dose level used in this study is 10-fold lower than the no-effect dose previously established for acute toxicity of PI-88. Blood samples (˜250 μL) were collected predose and at 5, 15, 30, 45 min, and 1, 1.5, 2, 4, 8, 12, 24, 36 and 48 h after dosing. The blood samples were immediately centrifuged and the plasma collected. At completion of the experiments, the animals were killed by a lethal overdose of IV pentobarbitone anaesthetic (Nembutal®). Urine was collected from each animal at intervals of 0-12 h, 12-24 h and 24-48 h after dosing. Cage washings (˜15 mL of deionised water) were also collected. At the end of the experiment, bladder contents were aspirated from each animal and added to the 24-48 h voidings. Feces were collected over the same time intervals as the urine.
Aliquots of plasma (100 μL), urine and cage washings (500 μL) were transferred directly to 6 mL polypropylene scintillation vials for determination of radioactivity. Feces collected during each time period (from one animal dosed with each compound) were weighed and homogenised in 4 volumes of deionised water using a mechanical homogeniser. Approximately 1 g (accurately weighed) of this slurry was transferred to a 20 mL glass scintillation vial, 2 mL of tissue solubiliser added and the vials capped and incubated at 60° C. for at least 24 h. Radioactivity was measured following mixing of samples with Packard Ultima Gold liquid scintillation counting cocktail (2.0 mL for plasma and dose, 5.0 mL for urine and cage washings, 10 mL for feces). Counting was conducted on a Packard Tr-Carb liquid scintillation counter. Any result less than three times the background was considered less than the lower limit of quantitation not used in calculations. Plasma, urine and cage washings were counted in triplicate within 5 days of collection and were not corrected for radiochemical decay. Feces were processed as a batch at the completion of the study and the counts from these samples were corrected for radiochemical decay.

[8] abbreviates: iv bolus 2.5 mg/kg, plasma radioactivity.

FGF-2, sequence (P09038 143-288, species assumed): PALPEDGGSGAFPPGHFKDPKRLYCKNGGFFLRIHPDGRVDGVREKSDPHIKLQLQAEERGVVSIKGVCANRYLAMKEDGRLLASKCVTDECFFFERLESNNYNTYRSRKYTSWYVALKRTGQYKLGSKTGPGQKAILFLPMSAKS
FGF-1, sequence (P05230 whole entry, species assumed): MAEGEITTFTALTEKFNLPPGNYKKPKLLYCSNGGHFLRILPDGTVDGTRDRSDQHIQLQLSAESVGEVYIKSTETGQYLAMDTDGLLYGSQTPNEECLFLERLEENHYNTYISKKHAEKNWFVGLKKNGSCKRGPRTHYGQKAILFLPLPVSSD

For the compound `[N-]=[N+]=NC1OC(COS(=O)(=O)O)C(OC2OC(COS(=O)(=O)O)C(OC3OC(COS(=O)(=O)O)C(OC4OC(COS(=O)(=O)O)C(OC5OC(COS(=O)(=O)O)C(OC6OC(COS(=O)(=O)O)C(OS(=O)(=O)O)C(OS(=O)(=O)O)C6OS(=O)(=O)O)C(OS(=O)(=O)O)C5OS(=O)(=O)O)C(OS(=O)(=O)O)C4OS(=O)(=O)O)C(OS(=O)(=O)O)C3OS(=O)(=O)O)C(OS(=O)(=O)O)C2OS(=O)(=O)O)C(OS(=O)(=O)O)C1OS(=O)(=O)O` (stereo not drawn) [PG505], the Kd in data set [1] was 1.96 ± 0.3 nM; in data set [2], 137 ± 12 nM; in data set [3] it was 4.8 ± 0.4 nM. For the same compound, in data set [4], the IC50 was found to be 1040 ± 147 nM.
For PEG2000 Polysulfate [PG506], the IC50 in data set [5] is 10000 nM. The compound also gave an IC50 in data set [6] of 7000 nM. For the same compound, in data set [7] (iv bolus 2.5 mg/kg), the “Cl* (apparent)” value was 404 ± 59.5^ mL/h/kg, the “Vd* (apparent)” value is given as 44.5 ± 4.5^ mL, the “k* (apparent)” value was 1.17 ± 0.024^ h^−1 and the “Urinary Recovery” value was 79.1 ± 3.6^ % dose. For the same compound, in data set [7] (setting [8]), the C0 is listed as 17.1 ± 1.8^ μg-eq/mL. Also, the “AUC0-12 h, calculated over 0-8 h post dose interval only” value in data set [7] (iv bolus 2.5 mg/kg, 0-8 h post dose interval only) was 6.2 ± 1.0^a μg-eq/h · mL.
PEG5000 Polysulfate [PG504]: the half-inhibitory concentration (IC50) in data set [6] was 11000 nM. In addition, in data set [7] (iv bolus 2.5 mg/kg), the “Cl* (apparent)” value turned out to be 172 ± 11.8 mL/h/kg, the “Vd* (apparent)” value is on record as 24.9 ± 2.9 mL, the “k* (apparent)” value stood at 0.247 ± 0.003 h⁻¹ and the “Urinary Recovery” value was 66.5 ± 9.4 % dose. In data set [7] (setting [8]), the AUC0-12 h is recorded as 14.7 ± 1.2 μg-eq/h · mL and the C0 was 30.5 ± 2.3 μg-eq/mL.
In the case of PI-88 [reference compound], in data set [7] (in vivo, iv, 2.5 mg/kg), the AUC0-12 h was found to be 9.6 ± 1.9 μg-eq/h · mL, the C0 was determined as 17.7 ± 2.23 μg-eq/mL, the “Cl* (apparent)” value came to 250 ± 27.6 mL/h/kg and the “Vd* (apparent)” value is listed as 43.1 ± 1.9 mL. For the same compound, the “t1/2* (apparent)” value in data set [7] (in vivo, iv, 2.5 mg/kg) stood at 49.8 ± 5.4 min.

(Values after patent publication US8173606B2, “Sulfated oligosaccharide derivatives” (Progen Pharmaceuticals Limited, priority 2004, dated 2012).)
